# Laboratory results as given in patent US20110092524A1, “Agent for Enhancing Corneal Epithelial Barrier Function” (SANTEN PHARMACEUTICAL CO., LTD., priority 2008, published 2011).
# Read-outs that look alike come from different tables or passages of the source.
# Key:
# [1] = system: SV40-immortalized human corneal epithelial cells (HCE-T); experiment: Enhancing effect of PPARγ agonist on barrier function (membrane electrical resistance of corneal epithelial cell layer); format: cell-based; details: for Membrane electrical resistance: five days after seeding, average of four experiments, base culture 296.0
# Procedure: The PPARγ agonist was evaluated with respect to the enhancing effect on the barrier function of a corneal epithelial cell. For the corneal epithelial cell, an SV40-immortalized human corneal epithelial cell line was used, utilizing a membrane electrical resistance as an index of the barrier function. When the bather function of the corneal epithelial cell is enhanced, the membrane electrical resistance increases, while the bather function is reduced, the membrane electrical resistance decreases.
# From RIKEN BioResource Center, SV40-immortalized human corneal epithelial cells (HCE-T) were obtained. […] As the culture medium, a DMEM/Ham's F12 (Nacalai Tesque, Inc.) containing 15% fetal bovine serum (ICN) and 40 μg/mL of gentamicin (Gibco) was used. […] The concentration mentioned above was attained by dissolving each sample in DMSO and diluting 1,000-fold with the culture medium. In addition, a culture medium containing DMSO alone was used as a base culture medium.
# (§1) Five days after the seeding, an electrical resistance of an epithelial cell layer was measured using a membrane electrical resistance measurement system (World Precision Instruments). A well containing the base medium alone with no corneal epithelial cell seeded was measured as a blank, and the value was subtracted from the electrical resistance of the epithelial cell layer. The resultant value was multiplied by an area of the cell culture (0.33 cm^2), to thereby obtain an electrical resistance (Ω·cm^2) per unit area.
# [2] = system: SV40-immortalized human corneal epithelial cells (HCE-T); experiment: Influence of PPARγ antagonist on barrier function enhancing effect of PPARγ agonist (membrane electrical resistance); format: cell-based; details: for Membrane electrical resistance: five days after seeding, average of four experiments, base culture 434.1
# Procedure: An influence of the PPARγ antagonist was evaluated with respect to the barrier function enhancing effect of the PPARγ agonist, and it was examined whether or not the enhancing effect on the barrier function is based on the activity of the PPARγ agonist.
# From RIKEN BioResource Center, SV40-immortalized human corneal epithelial cells (HCE-T) were obtained. On a culture insert of 24-well Transwell Clear (Corning Incorporated) were seeded 6.4×10^4 cells of HCE-T, and incubated at 37° C. in 5% CO2. As the culture medium, a DMEM/Ham's F12 (Nacalai Tesque, Inc.) containing 15% fetal bovine serum (ICN) and 40 μg/mL of gentamicin (Gibco) was used. The culture medium was removed after 9 hours, 2 days, 3 days and 4 days, and replaced with a culture medium containing the PPARγ agonist and the PPARγ antagonist to thereby obtain samples. As the PPARγ agonist, rivoglitazone [0.1 μM] was used, and as the PPARγ antagonist, 2-chloro-5-nitrobenzanilide (GW-9662) [0.03 μM, 0.1 μM] was used. The concentrations mentioned above were attained by dissolving each sample in DMSO and diluting 1,000-fold with the culture medium. In addition, a culture containing DMSO alone was used as a base culture medium.
# as §1, with “obtaining” for “obtain”
compound,measurement,setting,value
"COc1ccc2nc(COc3ccc(CC4SC(=O)NC4=O)cc3)n(C)c2c1 (centres unmarked) [Rivoglitazone, 5-[4-(6-methoxy-1-methyl-1H-benzimidazol-2-ylmethoxy)benzyl]thiazolidine-2,4-dione]",barrier function enhancing effect (in words),"[1]; sample 10 μM, HCE-T, compared with base culture medium",extremely strong barrier function enhancing effect
same,Membrane electrical resistance,"[1]; sample 10 μM, HCE-T",615.9 Ω · cm^2
same,Membrane electrical resistance,[2]; rivoglitazone 0.1 μM alone,538.8 Ω · cm^2
same,Membrane electrical resistance,[2]; rivoglitazone 0.1 μM and GW-9662 0.03 μM,473.5 Ω · cm^2
same,Membrane electrical resistance,[2]; rivoglitazone 0.1 μM and GW-9662 0.1 μM,429.3 Ω · cm^2
"COc1ccc(OC(=O)N(CC(=O)O)Cc2ccc(OCCc3nc(-c4ccccc4)oc3C)cc2)cc1 [BMS-298585, N-[(4-methoxyphenoxy)carbonyl]-N-[[4-[2-(5-methyl-2-phenyl-4-oxazolyl)ethoxy]phenyl]methyl]glycine]",barrier function enhancing effect (in words),[1],excellent barrier function enhancing effect
"CCc1ccc(CCOc2ccc(CC3SC(=O)NC3=O)cc2)nc1 (centres unmarked) [Pioglitazone, 5-[[4-[2-(5-ethyl-2-pyridinyl)ethoxy]phenyl]methyl]-2,4-thiazolidinedione]",Membrane electrical resistance,"[1]; sample 10 μM, HCE-T",350.3 Ω · cm^2
"CN(CCOc1ccc(CC2SC(=O)NC2=O)cc1)c1ccccn1 (centres unmarked) [Rosiglitazone, 5-[p-[2-(methyl-2-pyridylamino)ethoxy]benzyl]-2,4-thiazolidinedione]",Membrane electrical resistance,"[1]; sample 10 μM, HCE-T",343.2 Ω · cm^2
"C/C(=C/C(=O)c1ccccc1)N[C@@H](Cc1ccc(OCCc2nc(-c3ccccc3)oc2C)cc1)C(=O)O [GW-544, N-[1-methyl-3-oxo-3-phenyl-1(Z)-propenyl]-O-[2-(5-methyl-2-phenyloxazol-4-yl)ethyl]-L-tyrosine]",barrier function enhancing effect (in words),[1],excellent barrier function enhancing effect
"O=C(Nc1ccccc1)c1cc([N+](=O)[O-])ccc1Cl [GW-9662, 2-chloro-5-nitrobenzanilide]",antagonism of the barrier function enhanced by rivoglitazone (in words),[2]; GW-9662 0.03 μM and 0.1 μM with rivoglitazone 0.1 μM,concentration-dependently reduced
same,antagonism of the barrier function enhanced by rivoglitazone (in words),[2]; GW-9662 at 0.1 μM with rivoglitazone 0.1 μM,completely antagonized
